What was measured:
[1] = test system: human cell lines derived from patients with cancer; details: pancreatic cancer, medulloblastoma, lung cancer, multiple myeloma, leukemia, lymphoma lines; cited from earlier work
[2] = test system: Smoothened bearing the A1 point mutation; assay: Shh pathway inhibition in Smo/Smo (SmoA1) mouse medulloblastoma; type: in vivo
Source text: Two mouse medulloblastoma models were considered for these studies. In the Smo/Smo model, the constitutively active Smoothened (SmoA1) transgene is driven by a fragment of the mouse NeuroD2 promoter (Hallahan et al., (2004) Cancer Research 64: 7794-7800). Over 90% of Smo/Smo mice develop subclinical, localized medulloblastomas by one month of age and they typically become symptomatic and moribund 3-5 months later (Hatton et al., (2008) Cancer Research 68: 1768-1776). In this model, Smoothened is activated by a W539L point mutation (SmoA1) in the seventh transmembrane domain (Xie et al. (1998) Nature 391: 90-92; Taipale et al., (2000) Nature 406:1005-1009). While this model is ideal for many pre-clinical medulloblastoma therapeutic trials, it was previously reported that the introduced SmoA1 point mutation reduced the affinity of cyclopamine for Smoothened in tissue culture cells (Taipale et al., (2000) Nature 406:1005-1009). Tests were performed to determine whether doses of IPI-926 that were effective in other mouse model studies were sufficient to block the Shh pathway in Smo/Smo mouse tumors. […] Therefore, a different medulloblastoma model was used.

[3] = test system: Pgp/ABCB1 and BCRP; details: mouse, not told
[4] = test system: Ptc^C/C medulloblastoma; assay: Ptc^C/C mouse medulloblastoma model: survival, symptoms, MRI tumor volume; type: in vivo
Source text: Transgenic mice were maintained in accordance with the NIH Guide for the Care and Use of Experimental Animals with approval from our Institutional Animal Care and Use Committee. Conditional Patched1 null mice (Ptc^C/C) were generated on a mixed background by breeding mice homozygous for the floxed Ptch1 allele (Adolphe et al., (2006) Cancer Res 66: 2081-2088) to Math1-Cre mice, as previously described (Yang et al. (2008) Cancer Cell 14: 135-145). Mice were genotyped by PCR using genomic DNA using the following primers:
Animal experiments were performed in accordance with the NIH Guide for the Care and Use of Experimental Animals with approval from our Institutional Animal Care and Use Committee. 100% penetrance of medulloblastoma in the Ptc^C/C mice was observed, with all mice displaying symptoms of tumor formation by the time of weaning. Ptc^C/C mice (age ranging from 21-36 days) were randomized to receive either IPI-926 (Infinity Pharmaceuticals) or vehicle control (5% (2-Hydroxylpropyl)-B-Cyclodextrin (HPBCD), Sigma Aldrich) administered via intraperitoneal (IP) injection.
Mice were euthanized using CO2 inhalation, brains were removed and tissue snap frozen for RNA studies or fixed in 10% buffered formalin and processed for histopathological examination. Formalin-fixed tissues were paraffin embedded, cut into 4 um sections and stained with Haematoxylin and Eosin using standard methods.
Magnetic resonance imaging (MRI) was performed using a 3 Tesla MRI system (Philips Achieva, Philips Healthcare, Andover, Mass.) and a custom mouse head coil. Serial MR scans were performed using a 35 minute coronal high-resolution T2-weighted sequence (TE=110 ms, TR=2000 ms, bandwidth=212, 2 NEX or signal averages, a matrix of 256×256 pixels in-plane, slice thickness of 320 microns and an interslice gap of 160 microns). Mice were scanned under halothane anesthesia at enrollment, after 3 weeks of treatment, and after 6 weeks of treatment. Ctx:Cy5.5 bioconjugate (Tumor Paint) was given by intravenous tail vein injection one day prior to animal sacrifice. Biophotonic images were obtained using the Xenogen Spectrum imaging system (Caliper Life Sciences) as previously described (Veiseh et al. (2007) Cancer 67: 6882-6888).
DICOM images were exported from the MRI scanner to a web-based repository (BioScribe) and then imported into ITK-SNAP (version 2.0, available on the world wide web at itksnap.org). Images were first windowed to accentuate tumor/brain contrast, easily observed on the T2-weighted scans. […] Effacement of the fourth ventricle was accompanied by lateral and third ventriculomegaly and transependymal CSF flow. Tumor and enlarged cerebellum was seen to herniate into the internal auditory canals (IAC) bilaterally. After each imaging time-point, using the manual tracing tool, tumor tissue (including the IAC components) was painted in three planes excluding frank cerebrospinal fluid or cystic regions. The resultant segmentation file was saved for later use. Three-dimensional surface-rendered reconstructions were then performed and saved in two standard projections for each tumor analyzed, with the aim of delineating a consistent view of the tumor for comparison between pre- and post-treatment scans and between treatment groups. Automated pixel counting multiplied by image pixel dimensions yielded volumetric measures for each segmentation analysis dataset. In addition to quantitative analysis, pre and post-treatment scans were compared for evaluation of secondary changes such as hydrocephalus, prominent extra-axial spaces, cystic change/necrosis in treated tumor and any evidence of hemorrhage.
Studies were designed to detect differences in event rates that approximately corresponded to a doubling of median improvement in survival of (3 weeks) with 90% power based on simulated power experiments. […]

[5] = Tolerability in mice; type: in vivo; details: incl. daily 20 mg/kg for greater than 60 days and once-weekly 70 mg/kg
Source text: Studies that are currently underway in pediatric patients and those being planned must consider the permanent changes on cartilage and bone formation observed in young mice as a result of treatment with the HhAntag Smoothened inhibitor (Kimura et al., (2008) Cancer Cell 13: 249-260). The extent to which this on-target toxicity is species specific remains unknown at this time.

[6] = molecular target: Pgp (Homo sapiens, UniProt P08183); assay: Pgp substrate status; type: in vitro ADME
Sequence of Pgp (P08183 whole entry): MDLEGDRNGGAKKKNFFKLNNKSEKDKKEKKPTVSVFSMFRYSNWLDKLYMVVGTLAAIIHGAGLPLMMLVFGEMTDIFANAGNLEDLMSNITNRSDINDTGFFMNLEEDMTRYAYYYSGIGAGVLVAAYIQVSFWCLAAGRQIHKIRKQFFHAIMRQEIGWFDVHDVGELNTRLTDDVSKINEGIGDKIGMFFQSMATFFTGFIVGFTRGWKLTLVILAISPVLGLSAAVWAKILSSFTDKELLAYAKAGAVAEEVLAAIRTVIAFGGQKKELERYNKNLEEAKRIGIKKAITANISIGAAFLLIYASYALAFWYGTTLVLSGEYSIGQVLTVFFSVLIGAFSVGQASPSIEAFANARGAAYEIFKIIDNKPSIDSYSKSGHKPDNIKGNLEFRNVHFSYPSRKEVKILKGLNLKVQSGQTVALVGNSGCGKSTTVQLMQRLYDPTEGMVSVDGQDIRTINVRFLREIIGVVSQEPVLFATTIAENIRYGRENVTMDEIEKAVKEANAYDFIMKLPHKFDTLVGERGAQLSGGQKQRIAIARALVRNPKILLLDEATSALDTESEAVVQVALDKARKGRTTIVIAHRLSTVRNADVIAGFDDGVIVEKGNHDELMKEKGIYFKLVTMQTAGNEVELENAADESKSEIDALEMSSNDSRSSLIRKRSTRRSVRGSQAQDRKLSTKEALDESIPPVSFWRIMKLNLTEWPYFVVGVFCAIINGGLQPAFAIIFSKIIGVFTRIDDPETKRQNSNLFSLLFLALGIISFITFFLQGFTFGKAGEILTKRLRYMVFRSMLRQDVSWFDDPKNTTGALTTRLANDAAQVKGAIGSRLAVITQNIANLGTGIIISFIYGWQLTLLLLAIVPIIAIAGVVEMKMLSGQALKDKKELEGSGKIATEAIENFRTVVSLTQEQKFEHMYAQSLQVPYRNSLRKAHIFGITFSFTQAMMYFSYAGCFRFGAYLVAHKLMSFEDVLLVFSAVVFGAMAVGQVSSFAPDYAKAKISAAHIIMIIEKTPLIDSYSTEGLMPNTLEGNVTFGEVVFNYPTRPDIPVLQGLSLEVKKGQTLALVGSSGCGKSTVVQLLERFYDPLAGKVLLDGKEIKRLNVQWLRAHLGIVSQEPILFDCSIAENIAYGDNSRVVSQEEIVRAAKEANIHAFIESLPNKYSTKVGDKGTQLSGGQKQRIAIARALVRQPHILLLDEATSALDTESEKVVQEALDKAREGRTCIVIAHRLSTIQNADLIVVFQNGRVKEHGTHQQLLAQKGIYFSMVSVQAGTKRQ

CC1=C2C[C@H]3[C@@H](CC[C@@H]4C[C@H](NS(C)(=O)=O)CC[C@@]43C)[C@@H]2CC[C@@]2(C1)O[C@@H]1C[C@H](C)CN[C@H]1[C@H]2C [IPI-926]
in vitro growth of human cancer cell lines [1]: inhibit in vitro growth
proliferation or apoptosis ([2]; Smo/Smo mouse model): no detectable effect
expression of Gli1 ([2]; Smo/Smo mouse tumors): unaffected
Pgp protein expression (IHC) [3]: focal increases in Pgp
expression level of BCRP (Western blot) [3]: not significantly increased
expression level of Pgp (Western blot) [3]: not significantly increased
fraction of mice with rebound in tumor growth by 6 weeks (MRI) ([4]; 20 mg/kg/day, after maximal size reduction at 3 weeks): approximately half
tumor volume by MRI ([4]; after three weeks of daily administration): substantial tumor regression
average time to death after stopping treatment ([4]; drug withdrawn after six weeks of daily 20 mg/kg): ≤ 10 days
clinical symptoms of medulloblastoma ([4]; pilot study, daily IP 20 mg/kg/dose, 19 days of treatment): full resolution of clinical symptoms
mice still alive six weeks after starting twice-a-week therapy ([4]; six weeks daily then maintenance 20 mg/kg twice per week): 77%
survival ([4]; six weeks of daily IPI-926 20 mg/kg IP, vehicle 0%): 100%
tolerability [5]: well tolerated
Pgp substrate [6]: Pgp substrate

— patent US20120010229A1, “THERAPEUTIC REGIMENS FOR HEDGEHOG-ASSOCIATED CANCERS” (priority 2010, published 2012)
